Here are results for eight molecules from patent US12049474B2, “Nucleoside prodrugs and uses related thereto” (Emory University, priority 2019, dated 2024).

Structures are written as SMILES. Where “and” joins values, the source holds several entries; their conditions need not be identical. Equal values may be shown once. Where a name gives a salt, the structure may show the parent alone. Read-outs that look alike come from different tables or passages of the source.

In one series the target is CYP2D6 (Homo sapiens (Human), UniProt P10635). Briefly: biochemical. The following applies: human recombinant CYP2D6, AMMC substrate; read-out: CYP450 IC50 2D6. It is filed as biochemical. The method, then: (§1) The CYP450 inhibition assays utilized microsomes from insect cells expressing human recombinant individual cDNA-expressed CYP isoforms 3A4 and 2D6, as well as the fluorogenic probe that produces fluorescent metabolite. Standard inhibitors were co-incubated with fluorogenic substrates and their inhibitory potential (IC50) was determined. Assay conditions in terms of CYP450 protein concentration and time of incubation were standardized, enzyme kinetics parameters of each fluorescent probe substrate were estimated and IC50 values of inhibitors were determined and validated on different days to check reproducibility.
CYP2D6, sequence (P10635 whole entry, canonical isoform): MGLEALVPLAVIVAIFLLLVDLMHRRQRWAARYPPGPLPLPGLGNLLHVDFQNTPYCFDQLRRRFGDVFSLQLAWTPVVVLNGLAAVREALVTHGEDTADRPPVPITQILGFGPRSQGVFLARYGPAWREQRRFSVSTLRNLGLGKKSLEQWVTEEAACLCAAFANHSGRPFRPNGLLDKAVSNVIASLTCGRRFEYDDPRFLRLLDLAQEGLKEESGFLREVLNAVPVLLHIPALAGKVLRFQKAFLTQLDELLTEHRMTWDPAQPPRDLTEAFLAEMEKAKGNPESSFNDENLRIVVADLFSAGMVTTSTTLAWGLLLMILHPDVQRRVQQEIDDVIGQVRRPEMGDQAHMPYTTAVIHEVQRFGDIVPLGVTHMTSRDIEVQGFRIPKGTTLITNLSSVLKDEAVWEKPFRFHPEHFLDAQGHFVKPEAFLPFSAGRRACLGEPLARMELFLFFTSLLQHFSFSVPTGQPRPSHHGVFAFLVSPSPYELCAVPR
(§2) A 100 mM sodium phosphate buffer was prepared and adjusted to pH 7.4. In a separate falcon tube, a 2× enzyme/substrate (E/S) solution was prepared in phosphate buffer. The final concentration of CYP2D6 (CORNING®) and […] (AMMC) was 10 nM and 4 μM, and CYP3A4 (CORNING®) and 7-benzyloxy-4-(trifluoromethyl) coumarin (BFC) was 20 nM and 40 μM, respectively. In a separate falcon tube, a 2×NADPH regenerating system (NRS) was prepared in phosphate buffer. The final concentration for each component in the assay was as follows: • CYP2D6 assay: 0.008 mM NADPH, 3.3 mM glucose 6-phosphate, 0.4 U of glucose-6-phosphate dehydrogenase per mL
(§3) Both enzymatic assays were conducted in a 96-well microtiter plate (Black, CORNING® COSTAR®) with a final volume of 100 μL. Preparation of the plate began with the addition of 74 μL of the E/S in the first well, and 50 μL to all subsequent wells (from 2-11). The test compounds (1 μL) were dissolved in the first well to give the first row a final volume of 75 μL. A 1:3 serial dilution of the test compound was conducted by removing 25 μL from the first well and diluting it with the second and so forth until the tenth row. Final concentrations yielded a range from 200 μM-0.01 μM. Well no. 11 contained no inhibitor, and well no. 12 contained no enzyme. Both were used as controls for background fluorescence. The plate was incubated for 30 min at 37° C. After incubation, the reaction was initiated by the addition of 50 μL of the 2×NRS to each well.
Immediately (within 1 min) the fluorescence was measured using a microplate reader (BIOTEK® Synergy Neo2). CYP2D6 was monitored at Ex/Em=410/460 nm, and CYP3A4 monitored at Ex/Em=410/538 nm in kinetic mode that scanned every 5 min for 60 mins. Data was exported and analyzed using Graph Pad Prism 7. […] The IC50 value was derived after the data was fitted on a 10-point curve using a four-parameter logistic regression model.

A further series concerns the target CYP3A4 (Homo sapiens (Human), UniProt P08684). Briefly: Fluorometric CYP450 enzyme inhibition assay, CYP3A4. Type of series: biochemical. The following applies: human recombinant CYP3A4, BFC substrate; read-out: CYP450 IC50 3A4. The method, then:
as §1, §2
as §3, with “The test compounds (1 μL) were dissolved in the first well to give the first row a final volume of 75 μL.” left out
Immediately (within 1 min) the fluorescence was measured using a microplate reader (BIOTEK® Synergy Neo2). […] Data was exported and analyzed using Graph Pad Prism 7. […] The IC50 value was derived after the data was fitted on a 10-point curve using a four-parameter logistic regression model.

A short description of series [1]: Metabolic stability assay in human liver microsomes (HLM). It is filed as in vitro ADME. The following applies: NADPH, sampled 0-120 min; for HLM t1/2: 3 μM test compound. The method, then:
The LC-MS/MS analysis was performed using Agilent 1260 Infinity II HPLC, coupled with an Agilent G6460 triple quadrupole mass spectrometer (Agilent Technologies, USA). All the data were acquired employing Agilent 6460 Quantitative Analysis data processing software.
Reverse-phase HPLC separation for each compound was achieved either on an Agilent Porshell 120 EC-C8 column (2.1×50 mm, 2.7 μm), or on an Agilent Zorbax XDB C18 column (2.1×50 mm, 3.5 μm) with a mobile phase composed of methanol-water-formic acid or acetonitrile-water-formic acid (0.1%) at a flow rate of 0.5 mL/min (changes for some compounds). Each method was developed in the presence of an internal standard (ISTD) d5-7-ethoxy coumarin. The column temperature was maintained at 40° C. for most of the samples otherwise noted. The detection was operated in the Agilent JetStream electrospray positive ionization using multiple reaction monitoring mode (MRM).
Other MS conditions were as follows: dwell time 100 ms; gas flow 10 L/min; nebulizer pressure 45 psi; delta EMV 200 V; fragmentor voltage and collision energy for individual compounds vary.
Test compounds were dissolved in 100% DMSO or 100% MeOH to make 10 mM stock solutions. Verapamil (Sigma Aldrich) aided as a positive control and was dissolved in 100% DMSO to make 10 mM stock solutions. The 10 mM stock solution of test and control compounds were further diluted in potassium phosphate buffer (100 mM, pH 7.4) to 500 μM to ensure the organic solvent content was <0.2%. Human liver microsomes (HLMs) were purchased from Xenotech at 20 mg/mL. NADPH (Sigma Aldrich) 10 mM stocks were prepared in deionized water.
The HLM assay was prepared in a 1.5 mL Eppendorf tube with a final volume of 1100 μL for duplicate runs. Each reaction contained phosphate buffer (928.4 μL), liver microsomes (55 μL), and test compound resulting in a final concentration of 3 μM (6.6 μL of 500 μM). The reaction was initiated with 110 μL of 10 mM NADPH. Aliquots (100 μL) were removed in duplicate at 0, 15, 30, 60, 120 min (for prodrug compounds) and 0, 5, 10, 15, 30 min (verapamil, positive control compound) time intervals and quenched in cold […] of 100% methanol which contained internal standard (ISTD: d5-7-ethoxy coumarin 4 μM). Before centrifugation each of the aliquoted tubes were vortexed to make sure compounds were in the solution. The aliquots were centrifuged at 12,000 g for 5 min and the supernatant removed and placed in an LC-MS vial. Each time point was assessed using LC-MS and the area, based on the extracted ion, was integrated with respect to the ISTD. Positive controls were conducted at a final volume of 550 μL to give each time point in a single run. A no-NADPH negative control with test or control compound was performed in a single run (150 μL) at the longest time point. Controls were processed and analyzed like the test compounds. Each time point was run in duplicates followed by in-between blank washes to avoid the carryover and to equilibrate the column.

Another series relates to HEK293 cells. The following applies: 50% cytotoxic concentration; italicized results: absence of human serum albumin.
Another series deals with HIV. Briefly: microbe, parasite or virus in culture. Type of series: cell-based. Conditions: italicized results: absence of human serum albumin.
The conditions of series [2]: dogs, cited from earlier work.

CYP3A4, sequence (P08684 whole entry): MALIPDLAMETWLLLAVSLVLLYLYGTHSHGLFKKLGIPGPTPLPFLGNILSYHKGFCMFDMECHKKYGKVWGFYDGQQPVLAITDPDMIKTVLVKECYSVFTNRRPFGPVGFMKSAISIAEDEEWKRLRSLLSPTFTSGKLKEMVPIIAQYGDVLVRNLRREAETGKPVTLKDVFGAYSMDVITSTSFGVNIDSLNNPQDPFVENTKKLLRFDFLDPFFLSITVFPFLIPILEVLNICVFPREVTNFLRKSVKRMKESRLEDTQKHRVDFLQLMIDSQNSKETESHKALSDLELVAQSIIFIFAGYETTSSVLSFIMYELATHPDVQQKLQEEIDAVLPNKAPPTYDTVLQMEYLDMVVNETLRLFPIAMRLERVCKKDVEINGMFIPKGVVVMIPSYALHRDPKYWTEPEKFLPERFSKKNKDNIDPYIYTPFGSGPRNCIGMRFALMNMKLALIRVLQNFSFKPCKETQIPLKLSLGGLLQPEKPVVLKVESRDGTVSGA

Take `CCCCCCCCCCCCCCCOP(=O)(O)CO[C@H](C)Cn1cnc2c(N)ncnc21.N` [MD-1-106, Ammonium Pentadecyl (R)-(((1-(6-amino-9H-purin-9-yl)propan-2-yl)oxy)methyl)phosphonate]: the melting point (as a rule, the temperature, or range, at which the solid turns liquid) was 162 to 190 °C (dec.). The IC50 (in general, the concentration at which inhibition is half-maximal) on CYP2D6 was 22 µM. Moreover, the IC50 on CYP3A4 is 54.9 µM. Moreover, the “HLM t1/2” value in series [1] came out at 0.217 h. The cytotoxic concentration (CC50) (usually the concentration at which the toxic effect on the cells reaches its halfway point) in the series with HEK293 cells is greater than 100 µM.

`CCCCCCCCCCCCCCCCCCOP(=O)(O)CO[C@H](C)Cn1cnc2c(N)ncnc21.N` [MD-1-105, Ammonium Octadecyl (R)-(((1-(6-amino-9H-purin-9-yl)propan-2-yl)oxy)methyl)phosphonate]: the melting point was 154 to 184 °C (dec.). In addition, the IC50 at CYP2D6 stood at 20 µM. Moreover, the IC50 on CYP3A4 is 52.9 µM. Also, in series [1], the “HLM t1/2” value came to 0.217 h. Further, the CC50 in the series with HEK293 cells came out at 84.1 µM.

`C[C@H](Cn1cnc2c(N)ncnc21)OCP(=O)(O)O` [TFV, tenofovir, reference compound]: the IC50 was 2.06 µM and 1.6 µM in the series with HIV (pseudoviral particles, HEK293 cells, read-out: HIV IC50); greater than 50 µM on CYP2D6; 45.8 µM at CYP3A4. Besides, in series [1], the “HLM t1/2” value is greater than 2 h.

For `CC(C)OC(=O)[C@H](C)N[P@](=O)(CO[C@H](C)Cn1cnc2c(N)ncnc21)Oc1ccccc1` [TAF, tenofovir alafenamide fumarate], the IC50 with HIV (Human immunodeficiency virus 1, HEK293, read-out: HIV IC50, pseudoviral particles, HEK293 cells) is 0.002 µM; in the series with HIV (read-out: HIV IC50, pseudoviral particles, HEK293 cells) it was 0.001 µM; at CYP2D6, greater than 50 µM; on CYP3A4, 21 µM. In series [1] (pH 7.4, 3 μM test compound, read-out: HLM t1/2), the half-life at 3 µM stood at 0.433 h. Also, in series [2] (single oral dose), the “fraction of dose converted to plasma TFV” value is on record as 17%. Also, in series [2] (single oral dose), the “fraction of dose sequestered for toxic side effects” value is recorded as 82%. Besides, the “fraction of dose that achieved access to plasma unscathed” value in series [2] (single oral dose) is listed as 18%. Also, the “fraction of a single oral dose extracted by the liver” value in series [2] was 65%.

Take `C[C@H](Cn1cnc2c(N)ncnc21)OCP(=O)(O)OCCCOCCCCCCCCCCCCCC#CC(F)(F)F.N` [NP-PD-149, Ammonium [(1R)-2-(6-aminopurin-9-yl)-1-methyl-ethoxy]methyl-[3-(16,16,16-trifluorohexadec-14-ynoxy)propoxy]phosphinate]: the results for the IC50 on CYP2D6 and at CYP3A4 were greater than 20 µM and 12 µM, respectively. Moreover, the “HLM t1/2” value in series [1] is greater than 2 h. The molecule also showed a CC50 in the series on HEK293 cells greater than 100 µM.

With `C#CCCCCCCCCCCCCCCOCCCOP(=O)(O)CO[C@H](C)Cn1cnc2c(N)ncnc21.N` [MD-5-72, Ammonium 3-(hexadec-15-yn-1-yloxy)propyl (R)-(((1-(6-amino-9H-purin-9-yl)propan-2-yl)oxy)methyl)phosphonate], the IC50 on CYP2D6 and at CYP3A4 was greater than 20 µM throughout. Also, in series [1], the “HLM t1/2” value was greater than 2 h. In the series on HEK293 cells, this molecule registered a CC50 greater than 100 µM.

Regarding `C[C@H](Cn1cnc2c(N)ncnc21)OCP(=O)(O)OCCCCCCCCCCCCCCCCC#C[Si](C)(C)C.N` [NP-PD-042, Ammonium [(1R)-2-(6-aminopurin-9-yl)-1-methyl-ethoxy]methyl-(18-trimethylsilyloctadec-17-ynoxy)phosphinate], the IC50 at CYP2D6 was determined as 27.1 µM; at CYP3A4 it was 27 µM. Further, the “HLM t1/2” value in series [1] was greater than 2 h. This molecule gave a 50% cytotoxic concentration (CC50) in the series on HEK293 cells of 68.1 µM.

As for `C#CCCCCCCCCCCCCCOP(=O)(O)CO[C@H](C)Cn1cnc2c(N)ncnc21.N` [EJM-8-006, Ammonium pentadec-14-yn-1-yl (R)-(((1-(6-amino-9H-purin-9-yl)propan-2-yl)oxy)methyl)phosphonate], the IC50 at CYP2D6 came out at 84.9 µM; on CYP3A4, 54.8 µM. Besides, the “HLM t1/2” value in series [1] was 1.57 h. Also, the 50% cytotoxic concentration (CC50) with HEK293 cells is greater than 100 µM.
